In US12128040B2, “Selective estrogen receptor degraders” (Eli Lilly and Company, priority 2018, dated 2024):

Columns and labels:
[1] = system: Y537N mutant ERα receptor; assay: PRα inhibition (ERα functional antagonism) cell assay in MCF7-ESR1 Y537N 682 CRISPR cells; assay type: cell-based; conditions: Homo sapiens; MCF7-ESR1 Y537N 682 cells, 72 hours, n=14; read-out: Relative IC50 (nM), PRα inhibition
From the text: The purpose of the following PRα inhibition (ERα functional antagonism) cell assay is to determine the antagonistic activity of a test compound against the Y537N mutant ERα receptor. An antagonist in this assay is expected to block the function of the ERα receptor.
Culture MCF7-ESR1 Y537N-682 (generated by CRISPR/Cas9 gene editing of ESR1 gene in MCF7 cells, clone #682) in DMEM media supplemented with 10% FBS and 1% penicillin/streptomycin antibiotics and plate the cells (prior to becoming 70% confluent) in 384-well flat-bottom plates at a density of 4,000 cells per well in DMEM phenol red free media 10% FBS (20 μL volume) (charcoal stripped). Incubate the cells overnight in a cell culture incubator (5% CO2, 95% relative humidity and 37° C.) and allow the cells to attach to the plate. The following day dose the cells with the test compound. Use an Echo 555 acoustic dispenser to prepare compound serial dilutions (1:3) in a range from 6 μM to 0.0003 μM. […]
The following day, wash the cells with PBS […] (2×20 μL) and incubate with secondary antibody (20 μL/well) (1:1000 dilution, Goat anti-rabbit IgM ALEXA FLUOR™ 488) in PBS 1% BSA for 105 minutes at room temperature. […] Scan the plates with ACUMEN EXPLORER™ [Laser-scanning fluorescence microplate cytometer manufactured by TTP LABTECH LTD] to measure progesterone receptor alpha. […]

[2] = system: MCF7-ESR1 Y537N mutant cells; assay: Cell proliferation assay in MCF7-ESR1 Y537N-682; assay type: cell-based; conditions: Homo sapiens, seven days, n=6, read-out: Relative IC50 (nM), cell proliferation
[3] = system: PGR (Progesterone Receptor alpha) gene expression; assay: In vivo target inhibition (IVTI) assay (PGR RT-qPCR) in MCF7 tumors; parameters: species or system mice; conditions: MCF7 tumor xenograft, 30 mg/kg orally, 24 hours
Description: The purpose of this IVTI assay is to measure the ability of a test compound (SERD) to inhibit PGR (Progesterone Receptor alpha) gene expression (transcription) downstream of ERα in xenograft tumors implanted in mice.
Implant female NOD SCID mice (22-25 g) from Envigo RMS, Inc., Madison, Wisconsin with 5×10e^6 MCF7 ER+ve breast cancer cells (ATCC, #HTB-22) subcutaneously in the right flank region in 1:1 HBSS+[…]™ solution (200 μL). Implant a […] pellet (0.18 mg/pellet, 90 day release, from Innovative research) subcutaneously 1 day prior to tumor cell implantation. […] Sacrifice animals using isoflurane anesthesia plus cervical dislocation. Flash freeze tumors and store at −80° C. until processing for RNA isolation and RT-qPCR assay. Collect blood in EDTA tubes, spin down for plasma, and freeze at −80° C. in a 96-well plate. Determine test compound exposures using mass spectrometry.
Pulverize tumors in liquid nitrogen and lyse in 1×RNA lysis buffer (from RNA isolation kits) using Matrix D beads (MP Biomedical, #6913-500) in a FASTPREP-24™ Cell Disrupter machine (MP Biomedical). […] Measure isolated RNA concentration by diluting samples in RNase free water and measuring the absorbance at 260 nm on a plate reader (SpectraMax190). Subtract the average 260 nm absorbance measurement of the blank (RNase free water only) from the 260 nm measurements of all other RNA samples. […]

MCF7 xenograft tumor = assay: In vivo tumor growth inhibition study in MCF7 xenograft tumor implanted in mice; conditions: MCF7 breast cancer xenograft, 30 mg/kg QD, oral gavage
Description: The purpose of the following xenograft tumor growth inhibition assay is to measure reduction in tumor volume in response to test compound administration.
Twenty-four hours prior to implantation of MCF7 cells, implant estrogen pellets (0.18 mg/pellet, […], 90-day release, Innovative Research) subcutaneously.

O=C(c1ccc(OCCN2CC(CF)C2)cc1)c1c(-c2ccc(C(F)(F)F)cc2F)cnc2cc(O)ccc12 [Example 1, (4-{2-[3-(Fluoromethyl)azetidin-1-yl]ethoxy}phenyl){3-[2-fluoro-4-(trifluoromethyl)phenyl]-7-hydroxyquinolin-4-yl}methanone]
IC50 [1]: 7.6 ± 4.8 nM | IC50 [2]: 7.96 ± 3.69 nM | inhibition of PRα (PGR) expression [3]: 57% | Delta T/C % or Regression % (MCF7 xenograft tumor): −36%
